Experimental data published in patent US12318399B2 (priority 2022, dated 2025).

System: endometrial cancer organoids
Assay: Patient-derived endometrial cancer organoid cell viability (CellTiter-Glo)
Assay type: cell-based, human
Settings: for Flavonoids screening on endometrial cancer cell organoids, Average: viability normalized to vehicle = 100; for cell viability: FIG. 17B; for efficacy in combination with FSHE: combined with IC50 FSHE, FIG. 18; for cell viability compared to the IC50 value: 75 μM in combination with BSHE at an IC50, FIG. 17A
Description: Development of patient derived organoids: The patient derived organoids were created as follows: the patient's tissue sample was collected after surgery and bathed in Hank's Balanced Salt Solution (HBSS) (Hyclone, SH30031.02) with 1% Pencillin/Streptomycin (P/S) (Life Technologies, 15070-063) on ice. Then the sample was washed three times with Dulbecco's phosphate-buffered saline (DPBS) and 1% P/S on a shaker (70 rpm) for 15 minutes each. The tissue was then transferred into a presterilized cell-culture hood to mince it finely with a sterile blade. All minced parts were then digested in an enzyme named Accumax (Innovative Cell Technologies Inc., AM105-500) for 2.5 hours at room temperature. After 2.5-hour incubation, the whole digested tissue mince was transferred in another enzyme, TrypLE express, (Gibco, 12604-021) for another 45 minutes in a 37° C. water bath. During this time the solution was continuously agitated in every 5 minutes interval. After 45 minutes of incubation, the solutions were passed through 70 μm filter on a 50 mL falcon tube. The filter was removed, and the flowthrough with the cells was collected in 5% FBS AD+++ medium (comprising 1% TS, 2% B27, 1% N2, 25% WRN, hegf 50 ng/ml, hfgf 10-100 ng/ml, Nicotinamide 1 mM, N-acetyl cysteine 1.25 mM, Primocin 0.2%, Estrogen 2 nm, A8301 0.5 μM, and Y27632). This cell suspension was centrifuged at 1000 rpm for 5 minutes at room temperature to get the cell pellet for counting. Upon checking under hemocytometer cell number was calculated and processed for organoid culture. After checking under a microscope if we found RBC contamination in the final cell suspension, then we used Red Blood Cell Lysis Buffer (Roche Diagnostics, 11814389001) to get rid of the excess RBC. Human patient cells from endometrial cancer were grown and maintained in a humidified chamber at 37° C. with 5% CO2.
To culture patient-derived organoids, 2-3×10^3 cells were plated in a prewarmed (37° C.) 96-well plate in […] of Matrigel (5% FBS AD+++ medium) per well. Individual patient cell organoid was cultured separately in different plates. Individual patient cells were handled separately to reduce the chance of cross-contamination. After mixing cells with Matrigel, […] droplets were placed in wells and put in a 37° C. incubator with 5% CO2 for 30 minutes. Upon solidification of the Matrigel droplet with cells inside, the plate was placed inside a sterile hood and immersed the Matrigel droplet in 200 μL of organoid growth media. Cells were allowed to grow into mature organoids for 14 days. […] All treatments were done in triplicate, including vehicle-only controls (Dimethyl sulfoxide in culture medium at the highest concentration used for drug treatments).
Note: IC50 is the 50% inhibitory concentration which is conventionally used to determine drug potency with cell-based cytotoxicity tests. Similarly, all of the antioxidants were tested under the same protocol.
To assess the cell viability in organoids after treatments, CellTiter-Glo® Luminescent Assay (Promega #G7572) was used. In brief, on day 14 of organoid culture, the matrigel droplet in each well with organoid inside was immersed in 100 μL of fresh growth media and 100 μL of CellTiter-Glo® reagent following the manufacturer's guideline. Blank wells containing only media and CellTiter-Glo® reagent (no cells) were also included in each plate. Then the plates were put on a shaker at 110 RPM at room temperature for […] minutes to induce cell lysis, followed by 25 minutes at room temperature to stabilize the luminescent signal. Each step after adding the CellTiter-Glo® reagent was performed in the dark. Luminescence was measured on a FLUOstar OPTIMA plate reader (BMG Lab technologies, Offenburg, Germany). Analysis was performed by normalizing treatment values to the vehicle control and plotting them as a percentage of the vehicle control.

Row | SMILES | Flavonoids screening on endometrial cancer cell organoids, Average (10 μM, monotherapy) | Flavonoids screening on endometrial cancer cell organoids, Average (20 μM, monotherapy) | Flavonoids screening on endometrial cancer cell organoids, Average (30 μM, monotherapy) | Flavonoids screening on endometrial cancer cell organoids, Average (40 μM, monotherapy) | Flavonoids screening on endometrial cancer cell organoids, Average (50 μM, monotherapy) | Flavonoids screening on endometrial cancer cell organoids, Average (60 μM, monotherapy) | Flavonoids screening on endometrial cancer cell organoids, Average (80 μM, monotherapy) | Flavonoids screening on endometrial cancer cell organoids, Average (100 μM, monotherapy) | effect on cells as monotherapy (50 μM, monotherapy, FIG. 16) | cell viability compared to the IC50 value | further results
1 | O=c1c(O)c(-c2ccccc2)oc2ccccc12 [3-hydroxyflavone] | 61.62 | 48.26 | 51.28 | 41.00 | 37.88 | 35.89 | 34.31 | 34.65 | – | – | –
2 | O=c1c(O)c(-c2ccccc2)oc2cc(O)cc(O)c12 [Galangin] | 98.74 | 98.58 | 96.96 | 69.20 | 49.62 | 33.55 | 25.66 | 29.73 | – | – | –
3 | O=c1cc(-c2ccc(O)c(O)c2)oc2cc(O)cc(O)c12 [Luteolin] | 90.54 | 56.75 | 33.96 | 1.39 | 0.00 | 0.00 | 0.00 | 0.00 | – | – | –
4 | O=c1c(O)c(-c2ccc(O)c(O)c2)oc2cc(O)cc(O)c12 [Quercetin] | 95.16 | 89.43 | 85.33 | 58.16 | 34.67 | 25.59 | 7.88 | 0.00 | – | – | –
5 | N.N.O=C([O-])C1(C(=O)[O-])CCC1.[Pt+2] [carboplatin, reference compound] | – | – | – | – | – | – | – | – | – | – | relative improvement on increasing the chemotherapeutic drug by 5× (carboplatin alone): about 18%; viability (carboplatin alone, 50 μg/mL (lowest dose)): about 50%; viability (carboplatin alone, highest dose): about 32%
6 | O=c1cc(-c2ccccc2)oc2cc(O)cc(O)c12 [chrysin] | – | – | – | – | – | – | – | – | – | – | cell viability (10 μM combined with the IC50 of the BSHE): 3.04%; growth (10 μM, monotherapy, FIG. 16): 178.99%; change in viability, combination vs monotherapy (10 μM, with IC50 of BSHE): ~175%; cell viability (12.5 μM combined with the IC50 of the BSHE): ~0%; growth (25 μM, monotherapy, FIG. 16): 188.45%; growth (50 μM, monotherapy, FIG. 16): 125.21%; viability (100 μM, monotherapy, FIG. 16): 56.74; efficacy in combination with FSHE: 2nd most effective combination
7 | CC(=O)O[C@H]1C(=O)[C@@]2(C)[C@H]([C@H](OC(=O)c3ccccc3)[C@]3(O)C[C@H](OC(=O)[C@H](O)[C@@H](NC(=O)c4ccccc4)c4ccccc4)C(C)=C1C3(C)C)[C@]1(OC(C)=O)CO[C@@H]1C[C@@H]2O [paclitaxel, reference compound] | – | – | – | – | – | – | – | – | – | – | relative reduction in viability on increasing the dose by 5× (paclitaxel alone, 4 nm/ml to 20 nm/ml): about 12%
8 | O=C1c2c(O)cc(O)cc2O[C@H](c2ccc(O)c(O)c2)[C@H]1O [taxifolin] | – | – | – | – | – | – | – | – | inducing cell proliferation | significant reduction cell viability | –
9 | Cc1c(C)c2c(c(C)c1O)CC[C@@](C)(CCC[C@H](C)CCC[C@H](C)CCCC(C)C)O2 [tocopherol, reference compound] | – | – | – | – | – | – | – | – | inducing cell proliferation | significant reduction cell viability | efficacy in combination with FSHE: made the IC50 FSHE ineffective; impact on cell viability alone in the carrier (monotherapy in DMSO): virtually no impact on cell viability
10 | C=C1CC/C=C(\C)CC[C@@H]2[C@@H]1CC2(C)C [β-caryophyllene, reference compound] | – | – | – | – | – | – | – | – | inducing cell proliferation | significant reduction cell viability | –
